Measured values published in patent publication US11867689B2, “Engineered renal tissues, arrays thereof, and methods of making the same” (Organovo, Inc., priority 2014, dated 2024).

Assays:
[1] = system: epithelial layer comprising primary cells (070615-RPTEC); assay: GGT activity, renal tubule model with primary epithelial layer; assay type: cell-based, human; conditions: primary cells (070615-RPTEC) compared with hTERT-RPTEC; FIG. 23B
Protocol: To assess the maturity and function of the epithelial component of the 3D bioprinted tubule model, tissues were homogenized and assayed for gamma glutamyl-transferase (GGT) activity. […] As a positive control, hTERT-RPTEC cells cultured as a monolayer in 2D were assessed. […] At culture day 3, 10, 14, 21, or 28, 2D hTERT-RPTEC, 3D interstitium tissues, or 3D bioprinted tubule tissues were homogenized and assessed for functional GGT enzymatic activity using a colorimetric assay available from Sigma-Aldrich.

3D renal tubule model [2] = assay type: cell-based, human
Source text: To reduce the thickness and cellularity of the interstitial layer, the cell ratio was changed to 50% fibroblasts/50% HUVEC the concentration of the cells was 1.25×10^8 cells/mL. The interstitial layer of the renal proximal tubule model is composed of renal fibroblasts and HUVECs in Novogel® 2.0. […] E-cadherin (green) at the lateral membranes between RPTECs corresponds to tight junctions (FIGS. 9A, B and C). Further, the basement membrane corresponding to the interstitial layer produces collagen (FIGS. 9A and B; stained with red). H & E staining is shown (FIG. 10A), and brush borders are indicated (FIG. 11A, arrows). Trichrome staining indicates collagen secretion (FIGS. 10B, blue and 11B, arrows), and CD31 staining indicates the presence of HUVEC networks (FIG. 12, asterisks). […] As a positive control, hTERT-RPTEC cells cultured as a monolayer in 2D were assessed. As a negative control, bioprinted renal interstitial tissues without epithelium were also assayed to verify that the detected GGT activity was epithelial-specific. At culture day 3, 10, 14, 21, or 28, 2D hTERT-RPTEC, 3D interstitium tissues, or 3D bioprinted tubule tissues were homogenized and assessed for functional GGT enzymatic activity using a colorimetric assay available from Sigma-Aldrich. […]

3D renal tubule model [3] = assay: histology of treated 3D renal tubule models; assay type: cell-based, human; conditions: 50 ng/mL TGFβ; FIG. 22D
[4] = system: 3D renal tubule model (interstitial tissue and epithelial tissue); assay type: cell-based, human
[5] = system: interstitial tissue alone

Compound | sensitivity in the GGT assay, primary versus immortalized cells [1] | GGT activity (3D renal tubule model [2]) | Masson's trichrome staining histology (fibrosis) (3D renal tubule model [3]) | toxicity by alamarBlue assay [4] | toxicity by alamarBlue assay [5]
N.N.[Cl][Pt][Cl] [cisplatin] | enhanced sensitivity | dose dependent reduction in GGT activity |  |  | 
TGFβ: listed among common cytotoxic agents; treatment at 50 ng/mL increased fibrosis |  |  | increase in fibrosis without the overt cell death |  | 
C[C@@H]1[C@H](O)[C@@H](C)/C=C/C=C/C=C/C=C/C=C/C=C/C=C/[C@H](O[C@@H]2O[C@H](C)[C@@H](O)[C@H](N)[C@@H]2O)C[C@@H]2O[C@](O)(C[C@@H](O)C[C@@H](O)[C@H](O)CC[C@@H](O)C[C@@H](O)CC(=O)O[C@H]1C)C[C@H](O)[C@H]2C(=O)O [AmpB, amphotericin B] |  | dose dependent reduction in GGT activity |  | dose dependent cytotoxicity | resistant
